# Test results as given in ChEMBL document CHEMBL1149378, “Naphthofuroquinone derivatives: inhibition of receptor tyrosine kinases” (Bioorg Med Chem Lett, 2006).
# The source made the active and inactive calls. No cut-off for these calls is given here.
# Legend:
# [1] = target: T1, Epidermal growth factor receptor (Homo sapiens, UniProt P00533); experiment: Intracellular inhibition of autophosphorylation of EGFR in A431 cells; type: functional, cell-based; settings: A-431
# [2] = target: T1, Epidermal growth factor receptor; experiment: Inhibition of MEK1 phosphorylation in EGF-treated A431 cells at 1 uM; type: functional, cell-based; settings: A-431
# [3] = target: T2, Fibroblast growth factor receptor 1 (Homo sapiens, UniProt P11362); experiment: Inhibitory activity against FGFR1 kinase at 20 uM
# Target sequence in this assay (P11362 22-822 limits assumed): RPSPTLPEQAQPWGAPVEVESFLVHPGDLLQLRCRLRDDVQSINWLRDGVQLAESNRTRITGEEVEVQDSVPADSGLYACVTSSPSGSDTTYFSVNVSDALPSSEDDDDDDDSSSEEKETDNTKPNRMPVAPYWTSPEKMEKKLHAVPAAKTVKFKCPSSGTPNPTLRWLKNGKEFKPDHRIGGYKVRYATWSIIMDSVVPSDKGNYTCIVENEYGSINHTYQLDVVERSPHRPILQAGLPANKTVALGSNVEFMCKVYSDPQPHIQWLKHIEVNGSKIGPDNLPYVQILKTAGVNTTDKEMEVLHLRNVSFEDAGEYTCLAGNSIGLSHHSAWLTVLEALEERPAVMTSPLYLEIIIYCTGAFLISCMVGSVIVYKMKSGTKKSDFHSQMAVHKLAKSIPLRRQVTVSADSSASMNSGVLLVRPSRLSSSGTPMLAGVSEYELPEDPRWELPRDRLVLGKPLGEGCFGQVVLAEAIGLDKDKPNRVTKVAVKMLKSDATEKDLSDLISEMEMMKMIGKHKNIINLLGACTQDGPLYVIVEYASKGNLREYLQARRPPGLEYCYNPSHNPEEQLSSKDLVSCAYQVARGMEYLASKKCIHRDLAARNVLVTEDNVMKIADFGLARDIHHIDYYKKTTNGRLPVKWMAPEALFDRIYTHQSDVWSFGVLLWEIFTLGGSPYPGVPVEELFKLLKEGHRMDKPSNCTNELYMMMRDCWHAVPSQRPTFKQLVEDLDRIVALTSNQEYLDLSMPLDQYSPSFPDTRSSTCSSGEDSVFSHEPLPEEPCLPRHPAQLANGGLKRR
# A-431 = experiment: Cytotoxicity against epidermoid carcinoma A431 cell line; type: functional, cell-based; settings: Homo sapiens
# [4] = target: T3, Vascular endothelial growth factor receptor 2 (Homo sapiens, UniProt P35968); experiment: Inhibitory activity against VEGFR2 kinase
# T3 sequence (P35968 whole entry): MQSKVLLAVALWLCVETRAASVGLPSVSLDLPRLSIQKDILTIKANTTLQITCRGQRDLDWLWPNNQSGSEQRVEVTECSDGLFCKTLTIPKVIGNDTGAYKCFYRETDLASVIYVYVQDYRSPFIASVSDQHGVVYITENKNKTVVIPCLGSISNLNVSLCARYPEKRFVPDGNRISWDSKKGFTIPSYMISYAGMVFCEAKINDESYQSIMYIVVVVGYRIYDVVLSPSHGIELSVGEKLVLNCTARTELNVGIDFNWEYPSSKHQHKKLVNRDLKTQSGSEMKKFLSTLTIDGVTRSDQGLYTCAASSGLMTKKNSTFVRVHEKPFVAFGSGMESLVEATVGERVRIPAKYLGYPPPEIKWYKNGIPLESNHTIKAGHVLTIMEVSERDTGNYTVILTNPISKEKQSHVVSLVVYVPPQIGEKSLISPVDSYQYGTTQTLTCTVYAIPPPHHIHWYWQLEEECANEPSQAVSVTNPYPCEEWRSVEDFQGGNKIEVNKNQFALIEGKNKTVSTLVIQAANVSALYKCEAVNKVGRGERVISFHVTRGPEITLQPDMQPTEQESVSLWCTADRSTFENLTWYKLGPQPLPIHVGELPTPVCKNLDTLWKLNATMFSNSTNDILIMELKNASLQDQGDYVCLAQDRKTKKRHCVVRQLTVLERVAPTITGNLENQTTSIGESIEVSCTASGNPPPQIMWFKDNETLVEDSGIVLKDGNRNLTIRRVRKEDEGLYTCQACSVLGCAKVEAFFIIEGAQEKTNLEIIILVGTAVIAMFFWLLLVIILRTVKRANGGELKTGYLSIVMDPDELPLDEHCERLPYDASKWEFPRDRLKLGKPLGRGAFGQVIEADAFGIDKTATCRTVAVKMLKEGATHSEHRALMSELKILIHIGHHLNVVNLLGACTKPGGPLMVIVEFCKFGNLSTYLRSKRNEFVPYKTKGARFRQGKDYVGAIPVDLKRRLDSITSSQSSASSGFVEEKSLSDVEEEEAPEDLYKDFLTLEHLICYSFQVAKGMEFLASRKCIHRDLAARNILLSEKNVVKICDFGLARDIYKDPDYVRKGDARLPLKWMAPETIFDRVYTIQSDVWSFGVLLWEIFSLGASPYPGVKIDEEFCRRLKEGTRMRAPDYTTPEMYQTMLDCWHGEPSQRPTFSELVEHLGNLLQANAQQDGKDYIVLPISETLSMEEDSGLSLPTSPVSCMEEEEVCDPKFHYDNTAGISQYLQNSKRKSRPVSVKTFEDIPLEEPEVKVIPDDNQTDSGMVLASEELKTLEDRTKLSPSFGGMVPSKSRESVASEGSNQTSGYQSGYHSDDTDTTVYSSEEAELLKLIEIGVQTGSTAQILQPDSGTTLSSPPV
# [5] = target: T1, Epidermal growth factor receptor; experiment: Inhibition of ERK2 phosphorylation in EGF-treated A431 cells at 1 uM; type: functional, cell-based; settings: A-431
# [6] = target: T3, Vascular endothelial growth factor receptor 2; experiment: Inhibitory activity against VEGFR2 kinase at 20 uM
# [7] = target: T4, Platelet-derived growth factor receptor beta (Homo sapiens, UniProt P09619); experiment: Inhibitory activity against PDGFRbeta kinase
# T4 sequence (P09619 whole entry): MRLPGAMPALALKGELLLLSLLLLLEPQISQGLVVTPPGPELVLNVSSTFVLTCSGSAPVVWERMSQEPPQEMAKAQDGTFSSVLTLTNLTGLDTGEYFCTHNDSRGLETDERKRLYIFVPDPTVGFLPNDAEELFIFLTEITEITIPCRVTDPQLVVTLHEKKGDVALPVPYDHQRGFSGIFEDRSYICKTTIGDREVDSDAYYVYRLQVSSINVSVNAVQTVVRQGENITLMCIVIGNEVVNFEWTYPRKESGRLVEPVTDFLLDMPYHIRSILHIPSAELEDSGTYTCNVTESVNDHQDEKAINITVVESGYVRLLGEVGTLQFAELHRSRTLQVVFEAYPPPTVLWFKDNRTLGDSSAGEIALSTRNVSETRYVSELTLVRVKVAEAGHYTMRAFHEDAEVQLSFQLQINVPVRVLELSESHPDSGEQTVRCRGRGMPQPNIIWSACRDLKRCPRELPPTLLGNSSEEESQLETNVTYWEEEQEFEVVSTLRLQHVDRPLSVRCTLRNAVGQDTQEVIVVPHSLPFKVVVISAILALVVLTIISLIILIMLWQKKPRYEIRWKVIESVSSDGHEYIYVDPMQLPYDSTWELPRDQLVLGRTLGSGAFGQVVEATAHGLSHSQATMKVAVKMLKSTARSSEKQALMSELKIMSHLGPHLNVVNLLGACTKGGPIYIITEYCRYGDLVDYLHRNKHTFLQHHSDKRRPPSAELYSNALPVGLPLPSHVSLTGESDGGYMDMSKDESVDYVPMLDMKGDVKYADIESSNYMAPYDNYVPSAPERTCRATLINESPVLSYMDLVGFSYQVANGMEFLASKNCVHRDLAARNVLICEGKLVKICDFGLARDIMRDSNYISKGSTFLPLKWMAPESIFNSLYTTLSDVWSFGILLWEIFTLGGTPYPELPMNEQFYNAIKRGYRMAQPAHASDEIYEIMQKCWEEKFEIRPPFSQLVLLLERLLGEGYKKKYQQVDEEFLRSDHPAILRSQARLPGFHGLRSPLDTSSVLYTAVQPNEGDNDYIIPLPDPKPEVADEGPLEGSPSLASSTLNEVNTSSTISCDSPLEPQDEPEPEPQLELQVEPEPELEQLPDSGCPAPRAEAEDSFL
# HUVEC [8] = experiment: Inhibition of HUVEC tube formation at 10 uM; type: functional, cell-based; settings: Homo sapiens
# [9] = target: T1, Epidermal growth factor receptor; experiment: Inhibition of MEK2 phosphorylation in EGF-treated A431 cells at 1 uM; type: functional, cell-based; settings: A-431
# [10] = target: T1, Epidermal growth factor receptor; experiment: Inhibitory activity against EGFR kinase
# [11] = target: T1, Epidermal growth factor receptor; settings: 20 uM
# Description: Inhibitory activity against EGFR kinase at 20 uM
# [12] = target: T2, Fibroblast growth factor receptor 1; experiment: Inhibitory activity against FGFR1 kinase
# [13] = target: T1, Epidermal growth factor receptor; experiment: Inhibition of ERK1 phosphorylation in EGF-treated A431 cells at 1 uM; type: functional, cell-based; settings: A-431
# [14] = target: T4, Platelet-derived growth factor receptor beta; experiment: Inhibitory activity against PDGFRbeta kinase at 20 uM
# HUVEC [15] = experiment: Inhibition of HUVEC tube formation at 2 uM; type: functional, cell-based; settings: Homo sapiens
# T1 sequence (P00533 whole entry): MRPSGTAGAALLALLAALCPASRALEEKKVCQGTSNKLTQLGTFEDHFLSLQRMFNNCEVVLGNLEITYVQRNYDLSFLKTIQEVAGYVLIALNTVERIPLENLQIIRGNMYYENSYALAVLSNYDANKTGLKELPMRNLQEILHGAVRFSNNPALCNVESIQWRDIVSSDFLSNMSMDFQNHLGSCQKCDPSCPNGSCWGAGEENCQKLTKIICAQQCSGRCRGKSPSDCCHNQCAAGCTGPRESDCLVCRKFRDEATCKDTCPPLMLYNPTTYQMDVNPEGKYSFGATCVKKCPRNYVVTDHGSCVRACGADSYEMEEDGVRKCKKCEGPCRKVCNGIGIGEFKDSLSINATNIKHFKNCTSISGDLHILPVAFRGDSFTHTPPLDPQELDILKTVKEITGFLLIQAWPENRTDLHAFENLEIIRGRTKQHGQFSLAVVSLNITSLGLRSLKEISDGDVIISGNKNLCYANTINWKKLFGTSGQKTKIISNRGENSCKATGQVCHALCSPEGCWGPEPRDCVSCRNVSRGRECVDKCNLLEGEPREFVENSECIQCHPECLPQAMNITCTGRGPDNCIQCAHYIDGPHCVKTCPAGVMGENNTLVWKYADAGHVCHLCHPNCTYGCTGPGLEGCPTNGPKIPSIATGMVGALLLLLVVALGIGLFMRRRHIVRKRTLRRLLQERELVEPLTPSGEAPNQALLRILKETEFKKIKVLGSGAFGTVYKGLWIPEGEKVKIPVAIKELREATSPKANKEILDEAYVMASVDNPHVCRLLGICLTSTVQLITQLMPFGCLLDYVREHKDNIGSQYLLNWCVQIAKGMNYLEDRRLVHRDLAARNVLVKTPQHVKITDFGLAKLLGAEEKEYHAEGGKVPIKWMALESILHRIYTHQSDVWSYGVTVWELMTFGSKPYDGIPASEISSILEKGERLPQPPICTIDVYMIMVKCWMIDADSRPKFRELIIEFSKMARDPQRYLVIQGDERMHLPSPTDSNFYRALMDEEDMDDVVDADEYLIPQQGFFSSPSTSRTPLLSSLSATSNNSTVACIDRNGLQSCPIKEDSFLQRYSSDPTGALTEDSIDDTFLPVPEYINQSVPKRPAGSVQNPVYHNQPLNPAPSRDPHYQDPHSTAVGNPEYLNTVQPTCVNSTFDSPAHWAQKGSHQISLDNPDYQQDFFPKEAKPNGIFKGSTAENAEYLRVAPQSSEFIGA
Activity [1],Activity [2],inhibition [3] [%],IC50 [4] [µM],Activity [5],inhibition [6] [%],IC50 [7] [µM],Activity [9],IC50 [10] [µM],inhibition [11] [%],IC50 [12] [µM],Activity [13],inhibition [14] [%],Structure (SMILES),IC50 (A-431) [µM],Activity (HUVEC [8]),Activity (HUVEC [15])
Active,Active,79.1,4.6,Active,81.7,5.5,Active,2.8,84.3,7.1,Active,89.8,COC(=O)c1c(OCCN2CCCCC2)c2ccccc2c2oc3c(c12)C(=O)c1ccccc1C3=O,4.3,Active,
,,93,4.3,,88,2.8,,4.1,90,4.9,,82,N#CC(C#N)=C(N)/C(C#N)=C/c1cc(O)c(O)c(O)c1 [TYRPHOSTIN 51],,,
,,10.5,,,-0.8,> 50,,12.6,16.7,> 50,,12.7,COC(=O)c1c(OC)c2ccccc2c2oc3c(c12)C(=O)c1ccccc1C3=O,,,
,,2.4,,,-2.1,> 50,,> 50,38.7,> 50,,5.7,CCCOc1c(C(=O)OC)c2c3c(oc2c2ccccc12)C(=O)c1ccccc1C3=O,,,
,,51.2,15.5,,57.5,10.2,,13.6,72.4,38.4,,57.2,COC(=O)c1c(OCCCN(C)C)c2ccccc2c2oc3c(c12)C(=O)c1ccccc1C3=O,,,
,,2.6,,,3.1,,,,19.4,,,2.9,COC(=O)c1c(OCc2ccncc2)c2ccccc2c2oc3c(c12)C(=O)c1ccccc1C3=O,,,
,,46,,,48.3,,,,72.6,,,69.4,COC(=O)c1c(OCc2ccc(OC)cc2)c2ccccc2c2oc3c(c12)C(=O)c1ccccc1C3=O,,,
,,51,13,,57.1,7.6,,31,71,23.6,,56.5,COC(=O)c1c(OCCN(C)C)c2ccccc2c2oc3c(c12)C(=O)c1ccccc1C3=O,1.1,Active,Active
,,44.5,,,40.9,,,,33.6,,,51.5,COC(=O)c1c(OCc2ccc(C(F)(F)F)cc2)c2ccccc2c2oc3c(c12)C(=O)c1ccccc1C3=O,,,
,,55.5,,,62.1,,,,68.3,,,68.9,COC(=O)c1c(OCCCN2CCN(c3ccccc3Cl)CC2)c2ccccc2c2oc3c(c12)C(=O)c1ccccc1C3=O,,,
,,41.4,,,40.7,,,,67.9,,,46.2,COC(=O)c1c(OCCN2CCOCC2)c2ccccc2c2oc3c(c12)C(=O)c1ccccc1C3=O,,,
,,12.6,,,16,,,,21.4,,,2.8,COC(=O)c1c(O)c2ccccc2c2oc3c(c12)C(=O)c1ccccc1C3=O,,,
,,-8.1,,,,,,,21.6,,,-0.3,COC(=O)c1c(OC(C)=O)c2ccccc2c2oc3c(c12)C(=O)c1ccccc1C3=O,,,
Active,,61.1,12.6,,60.4,15.9,,5.1,82.1,8.8,,64.1,CCN(CC)CCOc1c(C(=O)OC)c2c3c(oc2c2ccccc12)C(=O)c1ccccc1C3=O,1.7,Active,
,,50.8,,,52.2,,,,57.1,,,62.2,COC(=O)c1c(OCc2ccc(C(=O)OC(C)(C)C)cc2)c2ccccc2c2oc3c(c12)C(=O)c1ccccc1C3=O,,,
,,48.2,,,43.3,,,,47.5,,,52,COC(=O)c1c(OCCN2CCN(Cc3ccc(C(F)(F)F)cc3)CC2)c2ccccc2c2oc3c(c12)C(=O)c1ccccc1C3=O,,,
,,65.2,5.5,,86.5,8.7,,9,77.1,23.8,,95.5,COC(=O)c1c(OCCN2CCCC2)c2ccccc2c2oc3c(c12)C(=O)c1ccccc1C3=O,1.1,,
